Patent publication US10281267B2, “Method for evaluating flow of skin, method for examining skin glow improvers, and skin glow improver” (Shiseido Company, Ltd., priority 2014, dated 2019)
“Also recorded” adds a separate entry of the source.

Legend:
[1] = system: horny layer cells; experiment: Screening of specular reflectance improvers: arithmetic average roughness (Sa) of exfoliated horny layer cells by AFM; type: cell-based; conditions: for screening result: specular reflectance improver: 100 μl sample on horny layer cells, 30 minutes at 37° C., nine types of cosmetic ingredients screened
Text: The surface roughness of skin can be determined by measuring the surface of horny layer cells sampled with a strip of adhesive tape and the like using a microscope such as an atomic force microscope. Surface roughness can be calculated in terms of arithmetic average roughness (Sa) as defined in ISO25178 by acquiring 3D-scanned images captured using an atomic force microscope, correcting the inclination of the 3D shape by subtracting those images applicable to a Gaussian filter having a half width of 2 μm, displaying the images, and calculating the average of absolute values of the Z axis for each XY coordinate.
First, the arithmetic average roughness (Sa) of horny layer cells is measured (S11). Next, a sample is applied to the horny layer cells (S12). Then, the arithmetic average roughness (Sa) of the horny layer cells to which the sample has been applied is measured (S13). Next, the rate of decrease of the arithmetic average roughness (Sa) of the horny layer cells to which the sample was applied is determined relative to the arithmetic average roughness of the horny layer cells to which the sample was not applied (S14).
On the other hand, horny layer cells were exfoliated from the cheeks of the subjects using adhesive strips (Post-It®, 3M Corp.). Next, double-sided adhesive tape was adhered to a slide glass and the exfoliated horny layer cells were transferred to the slide glass. Moreover, the arithmetic average roughness (Sa) of five horny layer cells was measured using an AFM attached to the Optelics H1200A 3CCD real color confocal microscope (Lasertec Corp.) followed by determination of the average value thereof.
Horny layer cells were exfoliated from the cheeks of subjects using adhesive strips (Post-It®, 3M Corp.). Next, double-sided adhesive tape was adhered to a slide glass and the exfoliated horny layer cells were transferred to the slide glass. Moreover, the arithmetic average roughness (Sa) of five horny layer cells was measured using an AFM attached to the Optelics H1200A 3CCD real color confocal microscope (Lasertec Corp.) followed by determination of the average value thereof. Next, 100 μl of a candidate sample were dropped onto the horny layer cells followed by incubating for 30 minutes at 37° C. Moreover, arithmetic average roughness (Sa) of the aforementioned five horny layer cells was then measured in the same manner followed by determination of the average value thereof.

[2] = system: horny layer cells; experiment: as above; type: cell-based; conditions: trimethylglycine alone

SMILES: O=C(O)CO [glycolic acid]
- screening result: specular reflectance improver [1]: determined to be specular reflectance improvers
- arithmetic average roughness (Sa) of horny layer cells ([1]; concentration 4% by weight to 40% by weight, FIG. 20): decreases significantly

SMILES: COc1ccc(C(=O)[O-])c(O)c1.[K+] [potassium 4-methoxysalicylate]
- rate of decrease of arithmetic average roughness (Sa) of horny layer cells ([1]; 4-MSK at 0, 0.1, 1.0, 3.0 and 10.0% by weight, FIG. 8): dose-dependent increase in the rate of decrease of arithmetic average roughness (Sa) up to 3.0% by weight
- screening result: specular reflectance improver [1]: determined to be specular reflectance improvers
- arithmetic average roughness (Sa) of horny layer cells ([1]; concentration 3% by weight to 10% by weight, FIG. 13): decreases significantly

SMILES: O=C([O-])c1ccccc1O.[Na+] [sodium salicylate, sodium 2-hydroxybenzoate]
- screening result: specular reflectance improver [1]: determined to be specular reflectance improvers

SMILES: C[N+](C)(C)CC(=O)[O-] [trimethylglycine]
- rate of decrease of arithmetic average roughness (Sa) of horny layer cells ([1]; TMG alone at 0, 5 and 10% by weight, FIG. 9): does not have the effect of smoothing the horny layer or improving skin glow; also recorded: no differences in the rates of decrease of arithmetic average roughness (Sa); also recorded: did not have an effect on the rate of decrease of Sa
- specular reflectance of the skin [2]: confirmed to not be improved
